Test results from patent US11986532B2 (Arvinas Operations, Inc., priority 2021, dated 2024).
Like-named read-outs stand apart in the source and are kept apart here.

Target: T1, BCL6 (Homo sapiens, UniProt P41182)
T1 construct: endogenous in cells; host or cells: T47D breast cancer epithelial cells
Assay: Immunofluorescence protocol for high content imaging of BCL6 (degradation) in T47D cells, 3 days compound treatment
Type: cell-based
Settings: for DC50: read-out: Mean DC50 (nM)* category; for Dmax: read-out: Mean Dmax (%)** category
Description: Immunofluorescence Protocol for High Content Imaging of BCL6
T47D cells were seeded in 100 μl volume of RPMI1640-10% FBS in a 96-well black/clear bottom plates for adherent lines (Corning #3904).
Day 1. T47D breast cancer epithelial cells were seeded at a density so that confluence is ˜70-90% at endpoint. Cells were seeded at 7K/0.1 ml/well the morning prior to the addition of exemplary bifunctional degradation compounds.
Day 2. Prepare an 11 point 3-fold serial dilution of exemplary bifunctional compound in DMSO and aliquot an appropriate volume to cell growth media to generate a 2× final concentration of exemplary bifunctional compound. Add an equal volume (0.1 ml) of 2× exemplary bifunctional compound/media mix to previously plated cells, for a final top concentration in aqueous cell growth media of 0.1 or 1 μM. Incubate for 3 days at 37° C., 5% CO2.
Day 5 Immunofluorescence. Discard cell media. Wash wells with 200 μl of room temperature phosphate-buffered saline (PBS). Prepared 4% paraformaldehyde (PFA) from 16% PFA (Electron Microscopy Sciences #15710) using 1×PBS. Fifty μl of 4% PF was added to each well and incubate for 15 minutes at room temperature to fix the cells. The PFA was aspirated and the cells washed twice with PBS (200 μl)).
Prepared 0.1% Triton X-100 in PBS using 10% triton X-100 stock. The cells were permeabilized by adding 100 ul of the 0.1% Triton X-100 in PBS to each well to permeabilize cells and incubating at room temperature for 15 minutes. Cells were washed twice with PBS.
Prepared 3% BSA/PBS (from Thermofisher #37515 Blocker BSA in TBS, 10%), and 100 ul was added to each well. The cells were incubated for at least 1 hour at room temperature.
Prepared 1% BSA/PBS using Blocker BSA/PBS, and the 3% BSA/PBS removed from the wells.
For no primary antibody controls, 50 μl 1% BSA/PBS was added.
Primary antibody (BCL6 Rb Ab, CST-14895, Cell Signaling) was diluted 1:300 in 1% BSA/PBS using Blocker BSA/PBS.
Fifty μl of primary antibody added to all remaining wells (i.e., all wells other than the primary antibody controls) and the cells were incubated overnight at 4° C. with slow orbital movement.
Day 6. Contents of the wells was removed and the cells washed four times with 200 ul PBS. 1% BSA/PBS was prepared using Blocker BSA in PBS.
Diluted secondary antibody goat anti-Rb IgG Alexa-488 1:1000, and cell mask-Alexa-647 1:3000 in 1% BSA/PBS in the same mix. Add 50 μl to each well and incubate at room temperature for 1 hour in the dark.
Cells were washed three times with 200 ul PBS, and then incubated for 10 minutes with 100 ul Hoechst dye at 1 μg/mL (20 mM stock) to stain cell nuclei. Wells were then washed with 200 μl PBS, and 100 ul of PBS was added to each well and the plate covered plate with a plastic opaque cover. Plates were stored at 4° C. and covered in aluminum foil until imaged.
Plates were equilibrated to room temperature prior to reading. The bottom of the plate was wiped with 70% isopropanol immediately prior to imaging.
10×, 4 fields/well, include Top hat smoothing in the analysis protocol.
16% paraformaldehyde: Electron Microscopy Sciences #15710
Hoechst: Thermofisher #62249
Blocker BSA in PBS, 10%: Thermofisher #37515
Blocker BSA in TBS, 10%: Thermofisher #37520
Goat anti-rabbit or mouse AlexaFluor-488: Thermofisher #A11008
Cell mask deep red AlexaFluor-647: Thermofisher #C10046
Wash buffer, PBS: 20×PBS, Thermofisher

[1] = T47D cells, 3 days compound treatment

Work on CNC(=O)COc1cc2cc(Nc3nc(N4CCC5(CC4)CC(CN4CCN(c6cccc7c6CN(C6CCC(=O)NC6=O)C7=O)CC4)C5)ncc3Cl)ccc2n(C(C)C)c1=O (stereo not drawn) [Compound 14, 2-{[6-({5-chloro-2-[2-({4-[2-(2,6-dioxopiperidin-3-yl)-1-oxo-2,3-dihydro-1H-isoindol-4-yl]piperazin-1-yl}methyl)-7-azaspiro[3.5]nonan-7-yl]pyrimidin-4-yl}amino)-2-oxo-1-(propan-2-yl)-1,2-dihydroquinolin-3-yl]oxy}-N-methylacetamide] yielded a DC50 [1] of under 10 nM and a Dmax [1] of at least 70%.
Work on CNC(=O)COc1cc2cc(Nc3nc(N4CCC(O[C@H]5C[C@H](N6CC7(CN(c8ccc9c(c8)C(=O)N(C8CCC(=O)NC8=O)C9=O)C7)C6)C5)CC4)ncc3Cl)ccc2n(C(C)C)c1=O (stereo partly drawn) [Compound 311, 2-({6-[(5-chloro-2-{4-[(1r,3r)-3-{6-[2-(2,6-dioxopiperidin-3-yl)-1,3-dioxo-2,3-dihydro-1H-isoindol-5-yl]-2,6-diazaspiro[3.3]heptan-2-yl}cyclobutoxy]piperidin-1-yl}pyrimidin-4-yl)amino]-2-oxo-1-(propan-2-yl)-1,2-dihydroquinolin-3-yl}oxy)-N-methylacetamide] yielded a Dmax (T47D) of 50 to 70% and a DC50 of under 10 nM.
Work on CNC(=O)COc1cc2cc(Nc3nc(N4CCN(CC5CCC6(CC5)CN(c5ccc7c(c5)CN(C5CCC(=O)NC5=O)C7=O)C6)CC4)ncc3Cl)ccc2n(C(C)C)c1=O (stereo not drawn) [Compound 305, 2-{[6-({5-chloro-2-[4-({2-[2-(2,6-dioxopiperidin-3-yl)-1-oxo-2,3-dihydro-1H-isoindol-5-yl]-2-azaspiro[3.5]nonan-7-yl}methyl)piperazin-1-yl]pyrimidin-4-yl}amino)-2-oxo-1-(propan-2-yl)-1,2-dihydroquinolin-3-yl]oxy}-N-methylacetamide] yielded a Dmax (T47D) of 50 to 70% and a DC50 of under 10 nM.
CNC(=O)COc1cc2cc(Nc3nc(N4CCC(O[C@H]5C[C@H](N6CCN(c7cc8c(cc7F)C(=O)N(C7CCC(=O)NC7=O)C8=O)[C@H](C)C6)C5)CC4)ncc3Cl)ccc2n(C(C)C)c1=O (stereo partly drawn) [Compound 408, 2-({6-[(5-chloro-2-{4-[(1r,3r)-3-[(3R)-4-[2-(2,6-dioxopiperidin-3-yl)-6-fluoro-1,3-dioxo-2,3-dihydro-1H-isoindol-5-yl]-3-methylpiperazin-1-yl]cyclobutoxy]piperidin-1-yl}pyrimidin-4-yl)amino]-2-oxo-1-(propan-2-yl)-1,2-dihydroquinolin-3-yl}oxy)-N-methylacetamide] showed a Dmax (T47D) of 50 to 70% and a DC50 of 50 to 100 nM.
For CNC(=O)COc1cc2cc(Nc3nc(N4CCC(OC5CCC6(CC5)CN(c5c(OC)ccc7c5CN(C5CCC(=O)NC5=O)C7=O)C6)CC4)ncc3Cl)ccc2n(C(C)C)c1=O (stereo not drawn) [Compound 300, 2-{[6-({5-chloro-2-[4-({2-[2-(2,6-dioxopiperidin-3-yl)-5-methoxy-1-oxo-2,3-dihydro-1H-isoindol-4-yl]-2-azaspiro[3.5]nonan-7-yl}oxy)piperidin-1-yl]pyrimidin-4-yl}amino)-2-oxo-1-(propan-2-yl)-1,2-dihydroquinolin-3-yl]oxy}-N-methylacetamide], the Dmax (T47D) was 50 to 70% and the DC50 was under 10 nM.
For CNC(=O)COc1cc2cc(Nc3nc(N4CCC(O[C@H]5C[C@H](N6CC7(CCN(c8ccc9c(c8F)CN(C8CCC(=O)NC8=O)C9=O)C7)C6)C5)CC4)ncc3Cl)ccc2n(C(C)C)c1=O (stereo partly drawn) [Compound 400, 2-({6-[(5-chloro-2-{4-[(1r,3r)-3-{6-[2-(2,6-dioxopiperidin-3-yl)-4-fluoro-1-oxo-2,3-dihydro-1H-isoindol-5-yl]-2,6-diazaspiro[3.4]octan-2-yl}cyclobutoxy]piperidin-1-yl}pyrimidin-4-yl)amino]-2-oxo-1-(propan-2-yl)-1,2-dihydroquinolin-3-yl}oxy)-N-methylacetamide], the Dmax (T47D) was at least 70% and the DC50 was under 10 nM.
CNC(=O)COc1cc2cc(Nc3nc(N4CCC(C(C)(C)N5CCC6(CC5)CN(c5cc(OC)cc7c5CN(C5CCC(=O)NC5=O)C7=O)C6)CC4)ncc3Cl)ccc2n(C(C)C)c1=O (stereo not drawn) [Compound 328, 2-{[6-({5-chloro-2-[4-(2-{2-[2-(2,6-dioxopiperidin-3-yl)-6-methoxy-1-oxo-2,3-dihydro-1H-isoindol-4-yl]-2,7-diazaspiro[3.5]nonan-7-yl}propan-2-yl)piperidin-1-yl]pyrimidin-4-yl}amino)-2-oxo-1-(propan-2-yl)-1,2-dihydroquinolin-3-yl]oxy}-N-methylacetamide] showed a Dmax (T47D) of 50 to 70% and a DC50 of under 10 nM.
With CNC(=O)COc1cc2c(F)c(Nc3nc(N4CCC(CN5CCC6(CC5)CN(c5ccc7c(c5)C(=O)N(C5CCC(=O)NC5=O)C7=O)C6)CC4)ncc3Cl)ccc2n(C(C)C)c1=O (stereo not drawn) [Compound 347, 2-{[6-({5-chloro-2-[4-({2-[2-(2,6-dioxopiperidin-3-yl)-1,3-dioxo-2,3-dihydro-1H-isoindol-5-yl]-2,7-diazaspiro[3.5]nonan-7-yl}methyl)piperidin-1-yl]pyrimidin-4-yl}amino)-5-fluoro-2-oxo-1-(propan-2-yl)-1,2-dihydroquinolin-3-yl]oxy}-N-methylacetamide] the Dmax (T47D) was at least 70% and the DC50 was under 10 nM.
With CNC(=O)COc1cc2cc(Nc3nc(N4CCC(O[C@H]5C[C@H](N6CCN(c7ccc8c(c7F)C(=O)N(C7CCC(=O)NC7=O)C8=O)CC6)C5)CC4)ncc3Cl)ccc2n(C(C)C)c1=O (stereo partly drawn) [Compound 413, 2-({6-[(5-chloro-2-{4-[(1r,3r)-3-{4-[2-(2,6-dioxopiperidin-3-yl)-4-fluoro-1,3-dioxo-2,3-dihydro-1H-isoindol-5-yl]piperazin-1-yl}cyclobutoxy]piperidin-1-yl}pyrimidin-4-yl)amino]-2-oxo-1-(propan-2-yl)-1,2-dihydroquinolin-3-yl}oxy)-N-methylacetamide] the Dmax (T47D) was under 50% and the DC50 was 10 to 50 nM.
Work on CNC(=O)COc1cc2cc(Nc3cc(N4CCC(O[C@H]5C[C@H](N6CCC(c7ccc8c(c7F)CN(C7CCC(=O)NC7=O)C8=O)CC6)C5)CC4)ncc3Cl)ccc2n(C(C)C)c1=O (stereo partly drawn) [Compound 258, 2-({6-[(5-chloro-2-{4-[(1r,3r)-3-{4-[2-(2,6-dioxopiperidin-3-yl)-4-fluoro-1-oxo-2,3-dihydro-1H-isoindol-5-yl]piperidin-1-yl}cyclobutoxy]piperidin-1-yl}pyridin-4-yl)amino]-2-oxo-1-(propan-2-yl)-1,2-dihydroquinolin-3-yl}oxy)-N-methylacetamide] yielded a Dmax (T47D) of 50 to 70% and a DC50 of under 10 nM.
In the case of CCC(C)n1c(=O)c(OCC(=O)NC)cc2cc(Nc3nc(N4CCC(O[C@H]5C[C@H](N6CCC(c7ccc8c(c7F)CN(C7CCC(=O)NC7=O)C8=O)CC6)C5)CC4)ncc3Cl)ccc21 (stereo partly drawn) [Compound 424, 2-{[1-(butan-2-yl)-6-[(5-chloro-2-{4-[(1r,3r)-3-{4-[2-(2,6-dioxopiperidin-3-yl)-4-fluoro-1-oxo-2,3-dihydro-1H-isoindol-5-yl]piperidin-1-yl}cyclobutoxy]piperidin-1-yl}pyrimidin-4-yl)amino]-2-oxo-1,2-dihydroquinolin-3-yl]oxy}-N-methylacetamide], the Dmax (T47D) is reported as at least 70% and the DC50 is reported as under 10 nM.
CNC(=O)COc1cc2cc(Nc3nc(N4CCN(C(C)(C)C5CCN(c6cc7c(cc6OC)C(=O)N(C6CCC(=O)NC6=O)C7)CC5)CC4)ncc3Cl)ccc2n(C(C)C)c1=O (stereo not drawn) [Compound 112, 2-{[6-({5-chloro-2-[4-(2-{1-[2-(2,6-dioxopiperidin-3-yl)-6-methoxy-1-oxo-2,3-dihydro-1H-isoindol-5-yl]piperidin-4-yl}propan-2-yl)piperazin-1-yl]pyrimidin-4-yl}amino)-2-oxo-1-(propan-2-yl)-1,2-dihydroquinolin-3-yl]oxy}-N-methylacetamide] showed a DC50 [1] of under 10 nM and a Dmax [1] of 50 to 70%.
